Experimental data taken from patent publication US20160368992A1, “A METHOD OF INCREASING GIPCR SIGNALIZATION IN THE CELLS OF A SCOLIOTIC SUBJECT” (CHU SAINTE-JUSTINE, priority 2013, published 2016).
Entries after “also recorded” stand apart in the source; their conditions may differ. Like-named read-outs stand apart in the source and are kept apart here.

Assays:
GiPCR signaling [1] = experiment: CDS (CellKey) functional evaluation of Gi protein-mediated receptor signaling in primary mouse osteoblasts; type: cell-based, mice
Gi1, Gi2, Gi3 proteins = experiment: Immunoprecipitation/Western blot: phosphorylation of Gi proteins in MC3T3-E1 cells; type: cell-based; conditions: MC3T3-E1 treated with rOPN in presence of kinase inhibitor
Procedure: Given that the defective GiPCR signaling associated with idiopathic scoliosis has causatively been related to increased phosphorylation of Gi proteins (Moreau et al., 2004), it was of interest to examined whether OPN influences the phosphorylation status of Gi proteins. Accordingly, MC3T3-E1 cells were treated with rOPN, then cell lysates were immunoprecipitated with antibodies against Gi1, Gi2 or Gi3 protein isoforms, and the phosphorylation level was examined by Western blot using anti-phospho serine/threonine or anti-tyrosine antibodies. […] However, band density was higher in OPN-treated cells.
To support the involvement of α5β1 integrin in this process, cells were pre-treated with antibody against α5β1 integrin prior to rOPN treatment.
Cell extracts prepared from MC3T3-E1 that had been treated with rOPN in the presence or absence of an inhibitor specific for each kinase were subjected to immunoprecipitation and Western blot analysis. […] However, both serine and tyrosine phosphorylation were attenuated by inhibitors of FAK (FAK inhibitor-14), Scr (PP2), CaMKII (KN93), PI3K (wortmannin-data not shown), MEK (PD98059), ERK1/2 (FR180204), JNK (SP60125) and P38 (SB203580).

GsPCR signaling = experiment: CDS response to GsPCR stimulation (isoproterenol, desmopressin) in MC3T3-E1 cells; type: cell-based; conditions: rOPN in combination with Src inhibitor; isoproterenol, similar with desmopressin
Source text: Taken into account these considerations and having observed that genetic deletion of OPN inversely influenced response to Gi and Gs stimulation (FIG. 1), it was of interest to examine the effect of OPN on the functional and phosphorylation status of Gs protein and on its interaction with receptors. For this purpose, cells were subjected to isoproterenol and desmopressin in the presence of rOPN or PBS. As expected, response to isoproterenol was higher in rOPN than in PBS-treated cells.
Assuming that inhibition of Gi protein and phosphorylation of Gs protein are responsible for the increased GsPCR signaling associated with rOPN, the next experiments aimed to determine the contribution of each parameter. For this purpose, cells were treated with PTX to mimic disruption action of rOPN and compared to cells treated with rOPN alone or in combination with Src inhibitor (PP2) to prevent tyrosine phosphorylation. […] This modest difference was abolished by Src inhibitor (PP2). Similar observations were noted when cells were stimulated with desmopressin.

GiPCR signaling [2] = experiment: CDS integrated response to GiPCR ligands in MC3T3-E1 osteoblastic cell line; type: cell-based; conditions: for response in the presence of rOPN after siRNA transfection: MC3T3-E1, compared with untreated cells
Procedure: The functional evaluation of Gi, Gs and Gq proteins was assessed by CDS assays using osteoblasts cells derived from C57Bl/6j WT and C57Bl/6j OPN^−/− mice (bipedal and quadrupedal) using CellKey™ apparatus, as previously described (Akoume et al., 2010, and WO 2010/040234 to Moreau et al.).
MC3T3-E1 cells were used to check the effect of the knockdown of OPN and its receptors. MC3T3-E1 osteoblasts cells were transiently transfected in serum-free medium, using Lipofectamine™ RNAiMAX reagent (Invitrogen) according to the manufacturer's instructions and functional experiments were performed 48 h post transfection. The sequence of RNA oligonucleotides used for the knockdown of different genes are, ssp1 (encodes OPN) (CCACAGCCACAAGCAGUCCAGAUUA (SEQ ID NO: 9)), integrin β1 (CCUAAGUCAGCAGUAGGAACAUUAU (SEQ ID NO: 10)), integrin β3 (CCUCCAGCUCAUUGUUGAUGCUUAU (SEQ ID NO: 11)), integrin α5 (CCGAGUACCUGAUCAACCUGGUUCA (SEQ ID NO: 12)), integrin α8 (GAGAUGAAACUGAAUUCCGAGAUAA (SEQ ID NO: 13)), integrin αv (GACUGUUGAGUAUGCUCCAUGUAGA (SEQ ID NO: 14 and CD44 (GAACAAGGAGUCGUCAGAAACUCCA (SEQ ID NO: 15)). Two other siRNAs against integrin α5 were tested (UCCACCAUGUCUAUGAGCUCAUCAA (SEQ ID NO:16) and UCAGGAGCAGAUUGCAGAAUCUUAU (SEQ ID NO:17)).
To further investigate the role of OPN in Gi protein-mediated receptor signaling, several lines of experiments were performed using MC3T3-E1 osteoblastic cell line. Since these cells express OPN, was first examined whether depletion of OPN by siRNA influences the capacity of GiPCR ligands to induce cell signaling as measured by CDS in MC3T3-E1 cells. […] Similar results were obtained when cells were stimulated with oxymethazolin. […] To confirm this hypothesis, cells were treated with exogenous recombinant OPN (rOPN) prior to DAMGO and oxymethazolin stimulation.

[3] = molecular target: RGD-dependent integrins expressed in osteoblasts; experiment: cell-based or functional assay
[4] = osteoblasts from WT and OPN-/- mice, increasing agonist concentration

Compound: C[C@@H](NC(=O)[C@@H](N)Cc1ccc(O)cc1)C(=O)NCC(=O)N(C)[C@@H](Cc1ccccc1)C(=O)NCCO [DAMGO]
- response to GiPCR agonist (GiPCR signaling [1]; [4]): concentration-dependent increase of response

Compound: Nc1cc(N)c(N)cc1N [FAK inhibitor-14]
- level of serine phosphorylation in the Gi protein precipitates (Gi1, Gi2, Gi3 proteins): attenuated
- tyrosine phosphorylation levels in the Gi protein precipitates (Gi1, Gi2, Gi3 proteins): attenuated

Compound: Nc1[nH]nc2nnc(-c3c(-c4ccccc4)nn4ccccc34)cc12 [FR180204]
- level of serine phosphorylation in the Gi protein precipitates (Gi1, Gi2, Gi3 proteins): attenuated
- tyrosine phosphorylation levels in the Gi protein precipitates (Gi1, Gi2, Gi3 proteins): attenuated

Compound: COc1ccc2c(c1)c(C1=C(c3c[nH]c4ccccc34)C(=O)NC1=O)cn2CCCN(C)C [Gö6983]
- level of serine phosphorylation in the Gi protein precipitates (Gi1, Gi2, Gi3 proteins): attenuated
- tyrosine phosphorylation levels in the Gi protein precipitates (Gi1, Gi2, Gi3 proteins): without effect

Compound: COc1ccc(S(=O)(=O)N(CCO)c2ccccc2CN(C)C/C=C/c2ccc(Cl)cc2)cc1 [KN93]
- level of serine phosphorylation in the Gi protein precipitates (Gi1, Gi2, Gi3 proteins): attenuated
- tyrosine phosphorylation levels in the Gi protein precipitates (Gi1, Gi2, Gi3 proteins): attenuated

Compound: COc1cccc(-c2cc(=O)c3ccccc3o2)c1N [PD98059]
- level of serine phosphorylation in the Gi protein precipitates (Gi1, Gi2, Gi3 proteins): attenuated
- tyrosine phosphorylation levels in the Gi protein precipitates (Gi1, Gi2, Gi3 proteins): attenuated

Compound: CC(C)(C)n1nc(-c2ccc(Cl)cc2)c2c(N)ncnc21 [PP2]
- level of serine phosphorylation in the Gi protein precipitates (Gi1, Gi2, Gi3 proteins): attenuated
- tyrosine phosphorylation levels in the Gi protein precipitates (Gi1, Gi2, Gi3 proteins): attenuated
- difference in response between rOPN-treated and PTX-treated cells (GsPCR signaling): abolished

Compound: C[S+]([O-])c1ccc(-c2nc(-c3ccncc3)c(-c3ccc(F)cc3)[nH]2)cc1 (centres unmarked) [SB203580]
- level of serine phosphorylation in the Gi protein precipitates (Gi1, Gi2, Gi3 proteins): attenuated
- tyrosine phosphorylation levels in the Gi protein precipitates (Gi1, Gi2, Gi3 proteins): attenuated

Compound: O=C1c2ccccc2-c2n[nH]c3cccc1c23 [SP60125]
- level of serine phosphorylation in the Gi protein precipitates (Gi1, Gi2, Gi3 proteins): attenuated
- tyrosine phosphorylation levels in the Gi protein precipitates (Gi1, Gi2, Gi3 proteins): attenuated

Compound: Cc1cc(C(C)(C)C)c(O)c(C)c1CC1=NCCN1 [oxymethazolin]
- response to GiPCR agonist (GiPCR signaling [1]; [4]): concentration-dependent increase of response

Compound: CD44 siRNA: siRNA for knockdown of CD44: GAACAAGGAGUCGUCAGAAACUCCA (guide GAACAAGGAGUCGUCAGAAACUCCA; listed as RNA, chemistry not given here)
- effect on the inhibitory effect of rOPN on response to DAMGO and oxymethazolin (GiPCR signaling [2]; MC3T3-E1 cells, rOPN present): did not prevent; also recorded: further aggravated the defect

Compound: OPN siRNA: siRNA for knockdown of ssp1 (encodes OPN): CCACAGCCACAAGCAGUCCAGAUUA
- integrated response to DAMGO and oxymethazolin (GiPCR signaling [2]; MC3T3-E1 cells, endogenous OPN depleted or blocked, no exogenous rOPN): significantly greater

Compound: RGD peptide
- RGD concentration reversing the inhibitory effect of OPN on response to DAMGO and oxymethazolin (CDS) [3]: > 10 µg/mL

Compound: apelin
- response to GiPCR agonist (GiPCR signaling [1]): concentration-dependent increase of response

Compound: hyaluronic acid [HA]
- sensitivity of GiPCR signaling to CD44 inhibition (GiPCR signaling [1]; CD44-/- osteoblasts): does not show any sensitivity
- GiPCR signaling defects (GiPCR signaling [1]; wild type osteoblasts, compared to the control): exacerbated
- GiPCR signaling defect / inhibitory effect of OPN when CD44 is inhibited (GiPCR signaling [1]; wild type osteoblasts, in presence of rOPN): intensified; also recorded: exacerbate the signaling defect

Compound: pertussis toxin [PTX]
- cellular responses to each of the four tested agonists after PTX pre-treatment (GiPCR signaling [1]; osteoblasts from WT and OPN-/- mice, DAMGO, somatostatin, oxymethazolin, apelin): largely reduced

Compound: α5 siRNA: siRNA against integrin α5: CCGAGUACCUGAUCAACCUGGUUCA; two others (SEQ ID NO:16, 17) also tested (guide CCGAGUACCUGAUCAACCUGGUUCA; listed as RNA, chemistry not given here)
- response in the presence of rOPN after siRNA transfection (GiPCR signaling [2]): high response

Compound: β1 siRNA: siRNA against integrin β1: CCUAAGUCAGCAGUAGGAACAUUAU (guide CCUAAGUCAGCAGUAGGAACAUUAU; listed as RNA, chemistry not given here)
- response in the presence of rOPN after siRNA transfection (GiPCR signaling [2]): high response
